The record followed here is patent US20260297542A1, “HERBICIDE RESISTANT PLANTS” (SYNGENTA CROP PROTECTION AG, priority 2023, published 2026).

Positions count from the first letter of the chain named.

For test [1], the target named is T1, AtPPO1 S305L G404A Y426V T431R L479N (SEQ ID NO.127) (Arabidopsis thaliana, UniProt P55826, G404A/L479N/S305L/T431R/Y426V).
T1 construct: made in house; host or cells: E. coli BL21 (DE3) hemG, crude extract
T1 sequence (P55826 35-537 S305L/G404A/Y426V/T431R/L479N): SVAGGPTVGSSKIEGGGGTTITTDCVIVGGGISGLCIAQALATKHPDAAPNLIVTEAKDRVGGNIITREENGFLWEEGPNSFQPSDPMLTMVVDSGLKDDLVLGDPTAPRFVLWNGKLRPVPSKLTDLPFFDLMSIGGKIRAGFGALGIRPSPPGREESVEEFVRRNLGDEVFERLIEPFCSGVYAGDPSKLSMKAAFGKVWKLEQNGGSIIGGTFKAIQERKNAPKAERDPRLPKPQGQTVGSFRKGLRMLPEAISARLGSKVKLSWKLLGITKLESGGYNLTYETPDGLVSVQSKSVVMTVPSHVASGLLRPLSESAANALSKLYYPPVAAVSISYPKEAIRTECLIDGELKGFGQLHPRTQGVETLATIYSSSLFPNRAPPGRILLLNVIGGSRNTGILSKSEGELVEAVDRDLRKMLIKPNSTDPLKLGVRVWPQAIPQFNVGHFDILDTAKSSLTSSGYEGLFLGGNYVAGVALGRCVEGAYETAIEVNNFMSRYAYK
As to the kind of experiment: fluorescent Protoporphyrinogen Oxidase assay, crude extract. Format: biochemical. The note with it: read-out: percentage inhibition.

The target in test [2] is T2, AtPPO1 Y361D V365L (SEQ ID NO.135) (Arabidopsis thaliana, UniProt P55826, V365L/Y361D).
T2 construct: made in house; host or cells: E. coli BL21 (DE3) hemG, crude extract
T2 sequence (P55826 35-537 Y361D/V365L): T1 sequence (P55826 35-537 S305L/G404A/Y426V/T431R/L479N) with L271S, Y327D, V331L, A370G, V392Y, R397T, N445L
Described as above. Type of test: biochemical. The following applies: for improvement over SEQ ID NO:124: AtPPO1 Y361D V365L (SEQ ID NO:135) vs SEQ ID NO:124; for inhibition at 0.1 ppm / inhibition at 1 ppm / inhibition at 10 ppm / inhibition at 100 ppm: read-out: percentage inhibition.

Broadly, the inhibition is how much of the control response was suppressed. Take `C#CCN1C(=O)C(F)(F)Oc2cc(F)c(-n3c(=O)n(C)c(=S)n(C)c3=O)cc21` [Herbicide B, trifludimoxazin]: in test [1], the inhibition at 0.1 ppm stood at 91%, the inhibition at 1 ppm amounted to 100%, the inhibition at 10 ppm worked out at 100% and the inhibition at 100 ppm stood at 100%. For the same compound, in test [2], the “improvement over SEQ ID NO:124” value was “improvement over SEQ ID NO:124 was seen”, the inhibition at 0.1 ppm amounted to 82%, the inhibition at 1 ppm came to 100% and the inhibition at 10 ppm worked out at 100%. Moreover, in test [2], the inhibition at 100 ppm was 100%.
In the case of `CCOC(=O)C1(C)CC(c2cc(-n3c(=O)cc(C(F)(F)F)n(C)c3=O)c(F)cc2Cl)=NO1` (centres unmarked) [Herbicide C, 3-(2-chloro-4-fluoro-5-(3-methyl-2,6-dioxo-4-trifluoromethyl-3,6-dihydropyrimidin-1(2H)-yl)phenyl)-5-methyl-4,5-dihydroisoxazole-5-carboxylic acid ethyl ester], in test [1], the inhibition at 0.1 ppm amounted to 47%, the inhibition at 1 ppm was 57%, the inhibition at 10 ppm came out at 83% and the inhibition at 100 ppm is 96%. In addition, in test [2], the “improvement over SEQ ID NO:124” value was “improvement over SEQ ID NO:124 was seen”, the inhibition at 0.1 ppm was 30%, the inhibition at 1 ppm turned out to be 84% and the inhibition at 10 ppm stood at 94%. Moreover, in test [2], the inhibition at 100 ppm is 100%.
`CCOC(=O)COc1ncccc1Oc1cc(-n2c(=O)cc(C(F)(F)F)n(C)c2=O)c(F)cc1Cl` [Herbicide A, epyrifenacil]: in test [1], the inhibition at 0.1 ppm worked out at 9%, the inhibition at 1 ppm turned out to be 45%, the inhibition at 10 ppm came out at 69% and the inhibition at 100 ppm is 88%. Further, in test [2], the inhibition at 0.1 ppm was determined as 56%, the inhibition at 1 ppm was found to be 89%, the inhibition at 10 ppm stood at 99% and the inhibition at 100 ppm turned out to be 96%.
Regarding `CCOC(=O)[C@]1(C)CC(c2cc(-n3c(=O)n(C)c(=S)n(C)c3=O)c(F)cc2Cl)=NO1` [Herbicide D, ethyl (5S)-3-[2-chloro-5-(3,5-dimethyl-2,6-dioxo-4-thioxo-1,3,5-triazinan-1-yl)-4-fluoro-phenyl]-5-methyl-4H-isoxazole-5-carboxylate], in test [1], the inhibition at 0.1 ppm came out at 13%, the inhibition at 1 ppm was 40%, the inhibition at 10 ppm is 75% and the inhibition at 100 ppm is 92%. In test [2], the “improvement over SEQ ID NO:124” value is “improvement over SEQ ID NO:124 was seen”, the inhibition at 0.1 ppm stood at 2%, the inhibition at 1 ppm is 63% and the inhibition at 10 ppm came out at 93%. The inhibition at 100 ppm in test [2] was 100%.
Regarding `CC(C)N(C)S(=O)(=O)NC(=O)c1cc(-n2c(=O)cc(C(F)(F)F)n(C)c2=O)c(F)cc1Cl` [Herbicide E, saflufenacil], in test [1], the inhibition at 0.1 ppm stood at 11%, the inhibition at 1 ppm was determined as 48%, the inhibition at 10 ppm was determined as 75% and the inhibition at 100 ppm was found to be 92%. Also, in test [2], the “improvement over SEQ ID NO:124” value is reported as “improvement over SEQ ID NO:124 was seen”, the inhibition at 0.1 ppm was determined as 0%, the inhibition at 1 ppm came out at 31% and the inhibition at 10 ppm was 83%. Further, the inhibition at 100 ppm in test [2] came to 100%.
